{"source": "patent US20150093398A1", "about": "“Methods and Compositions for Treating or Preventing Cancer” (MERCK SHARP & DOHME CORP., priority 2005, published 2015)", "key": {"[1]": {"test_system": "SK-N-MC neuroblastoma cells", "assay": "SK-N-MC neuroblastoma xenograft tumor growth in mice (04 IGFR-13, 19D12 vs. Cisplatin)", "type": "in vivo, Athymic nude mice", "conditions": "Cisplatin 2 mpk"}, "[2]": {"test_system": "Hs700T malignant pancreatic cells", "assay": "Hs700T pancreatic xenograft tumor growth in mice (04 IGFR-16, 19D12 and Gemzar combination);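 further: subcutaneous flank xenografts in athymic nude mice, treated once tumors averaged 100 mm^3, antibody given intraperitoneally twice weekly, tumor size measured by calipers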", "procedure": "(§1) Athymic nude mice were inoculated with tumor cells in the right flank, subcutaneously, along with Matrigel (1:1 cells:gel). In these experiments, 5×10^6 cells/mouse in a 1:1 mix with regular matrigel were inoculated subcutaneously. Tumor size was measured with calipers and the data was entered into the labcat program. Mice were grouped with average size of 100 mm^3. Tumor size and body weight were measured twice weekly.\n(§2) In these experiments, mice were dosed twice per week, intraperitoneally (i.p.) with antibody 19D12 and chemotherapeutic agents at the indicated frequency. Tumor size and mouse body weight was measured twice weekly after treatment."}, "[3]": {"test_system": "SJSA-1 osteosarcoma cells", "assay": "SJSA-1 osteosarcoma xenograft model (05-IGFR-12), dosing from day 18 post inoculation", "type": "in vivo, female nude mouse (strain NU/NU)", "conditions": "100 mpk Cytoxan", "description": "About 7 million SJSA-1 osteosarcoma cells were inoculated subcutaneously to the flank of each female nude mouse (strain NU/NU from Charles River, age ˜6 wks-old, average weight ˜20 gram). For the experiment set forth in Table 8, dosing was initiated on day 18 post inoculation, when the xenograft tumor reached an average size of about 100 mm^3. Anti-IGF1R antibody (19D12 Light chain F/Heavy chain A (as set forth above)) was given ip twice a week at the dose of either 0.02 mg, 0.1 and 0.5 mg per mouse, while cytotoxic Cytoxan (cyclophosphamide) was given ip twice per week at the dose of 100 mpk for a total of 3 injection during the course of the study. Xenograft tumor size was measured twice per week with a caliper and captured electronically by the LabCat program."}, "[4]": {"test_system": "SJSA-1 osteosarcoma cells", "assay": "SJSA-1 osteosarcoma xenograft model (05-IGFR-21), dosing from 15 days after inoculation", "type": "in vivo, female nude mouse (strain NU/NU)", "description": "Xenograft tumor size was measured twice per week with a caliper and captured electronically by the LabCat program. […] For the experiments set forth in Table 9, dosing was initiated 15 days after inoculation. […] Xenograft tumor size was measured twice per week with a caliper and captured electronically by the LabCat program."}, "[5]": {"test_system": "SJCRH30 rhabdomyosarcoma cells", "assay": "SJCRH30 rhabdomyosarcoma xenograft tumor growth in mice (05 IGFR-01, 19D12 and Cytoxan)", "type": "in vivo, Athymic nude mice", "conditions": "100 mpk Cytoxan", "procedure": "as §1, §2"}, "[6]": {"test_system": "SK-N-AS neuroblatoma cells", "assay": "SK-N-AS neuroblastoma xenograft tumor growth in mice (03 IGFR-09, 19D12 vs. Cytoxan)", "type": "in vivo, Athymic nude mice", "conditions": "100 mpk Cytoxan", "procedure": "as §1, §2"}}, "data": [{"molecule": "N.N.[Cl][Pt][Cl]", "note": "[Cisplatin, cisplatin, reference compound]", "values": [{"measurement": "Tumor Average Size", "setting": "[1]; Day 0", "result": 99, "unit": "mm^3"}, {"measurement": "Tumor Average Size", "setting": "[1]; Day 2", "result": 131, "unit": "mm^3"}, {"measurement": "Tumor Average Size", "setting": "[1]; Day 6", "result": 174, "unit": "mm^3"}, {"measurement": "Tumor Average Size", "setting": "[1]; Day 9", "result": 212, "unit": "mm^3"}, {"measurement": "Tumor Average Size", "setting": "[1]; Day 13", "result": 264, "unit": "mm^3"}, {"measurement": "Tumor Average Size", "setting": "[1]; Day 16", "result": 288, "unit": "mm^3"}, {"measurement": "Tumor Average Size", "setting": "[1]; Day 20", "result": 299, "unit": "mm^3"}, {"measurement": "Tumor Average Size", "setting": "[1]; Day 23", "result": 352, "unit": "mm^3"}, {"measurement": "Tumor Average Size", "setting": "[1]; Day 24", "result": 352, "unit": "mm^3"}, {"measurement": "Tumor Average Size", "setting": "[2]; 5 mpk Cisplatin, Day 0", "result": 79, "unit": "mm^3"}, {"measurement": "Tumor Average Size", "setting": "[2]; 5 mpk Cisplatin, Day 4", "result": 87, "unit": "mm^3"}, {"measurement": "Tumor Average Size", "setting": "[2]; 5 mpk Cisplatin, Day 7", "result": 96, "unit": "mm^3"}, {"measurement": "Tumor Average Size", "setting": "[2]; 5 mpk Cisplatin, Day 11", "result": 99, "unit": "mm^3"}, {"measurement": "Tumor Average Size", "setting": "[2]; 5 mpk Cisplatin, Day 14", "result": 100, "unit": "mm^3"}, {"measurement": "Tumor Average Size", "setting": "[2]; 5 mpk Cisplatin, Day 18", "result": 107, "unit": "mm^3"}, {"measurement": "Tumor Average Size", "setting": "[2]; 5 mpk Cisplatin, Day 21", "result": 113, "unit": "mm^3"}, {"measurement": "Tumor Average Size", "setting": "[2]; 5 mpk Cisplatin, Day 26", "result": 155, "unit": "mm^3"}, {"measurement": "Tumor Average Size", "setting": "[2]; 5 mpk Cisplatin, Day 29", "result": 175, "unit": "mm^3"}, {"measurement": "Tumor Average Size", "setting": "[2]; 5 mpk Cisplatin, Day 33", "result": 185, "unit": "mm^3"}, {"measurement": "Tumor Average Size", "setting": "[2]; 5 mpk Cisplatin, Day 36", "result": 173, "unit": "mm^3"}]}, {"molecule": "O=P1(N(CCCl)CCCl)NCCCO1", "note": "(stereo not drawn) [Cytoxan, cyclophosphamide, reference compound]", "values": [{"measurement": "Mean Tumor size", "setting": "[3]; Day 0", "result": 96, "unit": "mm3"}, {"measurement": "Mean Tumor size", "setting": "[3]; Day 3", "result": 111, "unit": "mm3"}, {"measurement": "Mean Tumor size", "setting": "[3]; Day 7", "result": 102, "unit": "mm3"}, {"measurement": "Mean Tumor size", "setting": "[3]; Day 10", "result": 59, "unit": "mm3"}, {"measurement": "Mean Tumor size", "setting": "[3]; Day 14", "result": 140, "unit": "mm3"}, {"measurement": "Mean Tumor size", "setting": "[3]; Day 17", "result": 172, "unit": "mm3"}, {"measurement": "Mean Tumor size", "setting": "[3]; Day 21", "result": 302, "unit": "mm3"}, {"measurement": "Mean Tumor size", "setting": "[3]; Day 24", "result": 586, "unit": "mm3"}, {"measurement": "Mean Tumor size", "setting": "[3]; Day 28", "result": 972, "unit": "mm3"}, {"measurement": "Mean Tumor size", "setting": "[4]; 50 mpk Cytoxan, Day 0", "result": 145, "unit": "mm3"}, {"measurement": "Mean Tumor size", "setting": "[4]; 50 mpk Cytoxan, Day 4", "result": 198, "unit": "mm3"}, {"measurement": "Mean Tumor size", "setting": "[4]; 50 mpk Cytoxan, Day 7", "result": 287, "unit": "mm3"}, {"measurement": "Mean Tumor size", "setting": "[4]; 50 mpk Cytoxan, Day 11", "result": 614, "unit": "mm3"}, {"measurement": "Mean Tumor size", "setting": "[4]; 50 mpk Cytoxan, Day 14", "result": 908, "unit": "mm3"}, {"measurement": "Mean Tumor size", "setting": "[4]; 100 mpk Cytoxan, Day 0", "result": 149, "unit": "mm3"}, {"measurement": "Mean Tumor size", "setting": "[4]; 100 mpk Cytoxan, Day 4", "result": 132, "unit": "mm3"}, {"measurement": "Mean Tumor size", "setting": "[4]; 100 mpk Cytoxan, Day 7", "result": 193, "unit": "mm3"}, {"measurement": "Mean Tumor size", "setting": "[4]; 100 mpk Cytoxan, Day 11", "result": 218, "unit": "mm3"}, {"measurement": "Mean Tumor size", "setting": "[4]; 100 mpk Cytoxan, Day 14", "result": 285, "unit": "mm3"}, {"measurement": "Tumor Average Size", "setting": "[5]; Day 0", "result": 75, "unit": "mm^3"}, {"measurement": "Tumor Average Size", "setting": "[5]; Day 4", "result": 125, "unit": "mm^3"}, {"measurement": "Tumor Average Size", "setting": "[5]; Day 7", "result": 232, "unit": "mm^3"}, {"measurement": "Tumor Average Size", "setting": "[5]; Day 11", "result": 347, "unit": "mm^3"}, {"measurement": "Tumor Average Size", "setting": "[5]; Day 14", "result": 591, "unit": "mm^3"}, {"measurement": "Tumor Average Size", "setting": "[5]; Day 18", "result": 733, "unit": "mm^3"}, {"measurement": "Tumor Average Size", "setting": "[6]; Day 4", "result": 257, "unit": "mm^3"}, {"measurement": "Tumor Average Size", "setting": "[6]; Day 7", "result": 227, "unit": "mm^3"}, {"measurement": "Tumor Average Size", "setting": "[6]; Day 11", "result": 111, "unit": "mm^3"}, {"measurement": "Tumor Average Size", "setting": "[6]; Day -1", "result": 122, "unit": "mm^3"}]}, {"molecule": "Cl.Nc1ccn(C2OC(CO)C(O)C2(F)F)c(=O)n1", "note": "(stereo not drawn) [Gemzar, gemcitabine, reference compound]", "values": [{"measurement": "Tumor Average Size", "setting": "[2]; 100 mpk Gemzar, Day 0", "result": 77, "unit": "mm^3"}, {"measurement": "Tumor Average Size", "setting": "[2]; 100 mpk Gemzar, Day 4", "result": 86, "unit": "mm^3"}, {"measurement": "Tumor Average Size", "setting": "[2]; 100 mpk Gemzar, Day 7", "result": 98, "unit": "mm^3"}, {"measurement": "Tumor Average Size", "setting": "[2]; 100 mpk Gemzar, Day 11", "result": 105, "unit": "mm^3"}, {"measurement": "Tumor Average Size", "setting": "[2]; 100 mpk Gemzar, Day 14", "result": 119, "unit": "mm^3"}, {"measurement": "Tumor Average Size", "setting": "[2]; 100 mpk Gemzar, Day 18", "result": 148, "unit": "mm^3"}, {"measurement": "Tumor Average Size", "setting": "[2]; 100 mpk Gemzar, Day 21", "result": 166, "unit": "mm^3"}, {"measurement": "Tumor Average Size", "setting": "[2]; 100 mpk Gemzar, Day 26", "result": 249, "unit": "mm^3"}, {"measurement": "Tumor Average Size", "setting": "[2]; 100 mpk Gemzar, Day 29", "result": 284, "unit": "mm^3"}, {"measurement": "Tumor Average Size", "setting": "[2]; 100 mpk Gemzar, Day 33", "result": 324, "unit": "mm^3"}, {"measurement": "Tumor Average Size", "setting": "[2]; 100 mpk Gemzar, Day 36", "result": 368, "unit": "mm^3"}]}]}
